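All cell lines were grown in 96-well plates and treated with compound for 48 hours. GI50: concentration for 50% inhibition of growth.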 The source made the active and inactive calls. No stated cut-off is given here; in the data, active = GI50 up to about 1.1 µM and inactive = higher.
Tests used:
Assay in all cases: inhibition of tumour cell growth, NCI panel, 48 h
[1] = system: HOP-62
[2] = system: CAKI-1
[3] = system: NCI-H23
[4] = system: HOP-92
[5] = system: A498
[6] = system: 786-0
[7] = system: NCI-H460
[8] = system: HCC 2998
[9] = system: SF-539
[10] = system: UO-31
[11] = system: SW-620
[12] = system: OVCAR-5
[13] = system: UACC-257
[14] = system: MDA-MB-231
[15] = system: U-251
[16] = system: MOLT-4
[17] = system: IGROV-1
[18] = system: CCRF-CEM
[19] = system: HL-60
[20] = system: K562

Measured: GI50

COC(=O)/C=C/c1ccc(OP(=O)(O)O)c(OC)c1
inactive: [1] > 100 µM | [2] > 100 µM | [3] > 100 µM | [4] > 100 µM | [5] > 100 µM | [6] > 100 µM | [7] > 100 µM | [8] > 100 µM | [9] > 100 µM | [10] > 100 µM | [11] > 100 µM | [12] > 100 µM | [13] > 100 µM | [14] > 100 µM | [15] > 100 µM | [16] > 100 µM | [17] > 100 µM | [18] > 100 µM

O=S(=O)(O)c1ccc(/N=N/c2ccc(/N=N/c3c(O)c(S(=O)(=O)O)cc4cc(S(=O)(=O)O)ccc34)cc2)cc1
inactive: [1] > 100 µM | [2] > 100 µM | [3] > 100 µM | [4] > 100 µM | [6] > 100 µM | [7] > 100 µM | [8] > 100 µM | [9] > 100 µM | [10] > 100 µM | [11] > 100 µM | [12] > 100 µM | [13] > 100 µM | [19] > 100 µM | [14] > 100 µM | [15] > 100 µM | [16] > 100 µM | [17] > 100 µM | [18] > 100 µM | [20] > 100 µM

N[C@H](Cc1ccc2oc3cc(=O)c4ccccc4c-3nc2c1)C(=O)O
inactive: [1] 46.5 µM | [2] > 100 µM | [3] 23.7 µM | [4] > 100 µM | [5] 49.7 µM | [6] 89.9 µM | [7] 25.9 µM | [9] 42.8 µM | [10] > 100 µM | [11] 46.7 µM | [12] 65.9 µM | [13] 29.8 µM | [19] 27.7 µM | [14] 62.7 µM | [15] 98.4 µM | [16] 37.8 µM | [17] 32.3 µM | [18] 20.9 µM | [20] 26.2 µM

CCOC(=O)C(CS)NC(=O)CCCCCCCC(=O)O (stereo not given)
inactive: [1] > 100 µM | [2] > 100 µM | [3] > 100 µM | [4] > 100 µM | [5] > 100 µM | [6] > 100 µM | [7] > 100 µM | [8] > 100 µM | [10] > 100 µM | [11] > 100 µM | [12] > 100 µM | [13] > 100 µM | [19] > 100 µM | [14] > 100 µM | [15] > 100 µM | [16] > 100 µM | [17] > 100 µM | [18] 41.5 µM | [20] > 100 µM

CC(=O)Oc1cc2c(n(C)c1=O)-c1ccccc1C2
inactive: [1] 81.7 µM | [2] 29.1 µM | [3] 75.5 µM | [4] 46.7 µM | [5] 97.7 µM | [6] > 100 µM | [7] 43.8 µM | [8] 85.9 µM | [10] 41 µM | [11] 24.4 µM | [12] > 100 µM | [13] > 100 µM | [14] 61.4 µM | [15] 75.9 µM | [16] 66.8 µM | [17] 36.2 µM | [18] 34.2 µM | [20] > 100 µM

Cc1cc(-c2nc3c(O)cccc3s2)ccc1N
inactive: [1] 25.6 µM | [2] 21.3 µM | [3] 26.9 µM | [4] 18.8 µM | [6] 29.3 µM | [7] 30.5 µM | [8] 32.8 µM | [9] 47.9 µM | [10] 15.8 µM | [11] 41.4 µM | [13] 20.3 µM | [19] 19.3 µM | [14] 22.9 µM | [15] 29.6 µM | [16] 25.4 µM | [17] 17 µM | [18] 27.3 µM | [20] 39.2 µM

Cc1c[nH]c(C(=O)O)c1-c1ccc2c(-c3ccccc3)nc3ccccc3n12
inactive: [1] 15.7 µM | [2] 34.7 µM | [3] 35.4 µM | [4] 32.9 µM | [5] 13.9 µM | [6] 33.3 µM | [7] 22.9 µM | [8] 13.7 µM | [9] 19.5 µM | [10] 34.4 µM | [11] 41.2 µM | [12] 36 µM | [13] 30.8 µM | [14] 32.9 µM | [15] 48.3 µM | [16] 34.2 µM | [17] 22.9 µM | [18] 36.3 µM | [20] 41.5 µM

Source: ChEMBL document CHEMBL1201862, “PubChem BioAssay data set” (2004)
